# ± gives the expanded uncertainty stated by the source.
# Settings: Liquid, Vibrating tube method
smiles,measurement,setting,value
CCCCOC [butyl methyl ether],mass density,"283.15 K, 100 kPa",755.88 ± 0.3 kg/m3
same,mass density,"283.15 K, 5000 kPa",760.82 ± 0.33 kg/m3
same,mass density,"283.15 K, 10000 kPa",765.42 ± 0.36 kg/m3
same,mass density,"283.15 K, 15000 kPa",769.77 ± 0.39 kg/m3
same,mass density,"283.15 K, 20000 kPa",773.91 ± 0.43 kg/m3
same,mass density,"283.15 K, 25000 kPa",777.86 ± 0.46 kg/m3
same,mass density,"283.15 K, 30000 kPa",781.65 ± 0.49 kg/m3
same,mass density,"283.15 K, 35000 kPa",785.29 ± 0.53 kg/m3
same,mass density,"283.15 K, 40000 kPa",788.8 ± 0.56 kg/m3
same,mass density,"283.15 K, 45000 kPa",792.18 ± 0.6 kg/m3
same,mass density,"283.15 K, 50000 kPa",795.45 ± 0.63 kg/m3
same,mass density,"283.15 K, 55000 kPa",798.61 ± 0.66 kg/m3
same,mass density,"283.15 K, 60000 kPa",801.68 ± 0.7 kg/m3
same,mass density,"283.15 K, 65000 kPa",804.67 ± 0.73 kg/m3
same,mass density,"288.15 K, 100 kPa",750.88 ± 0.3 kg/m3
same,mass density,"288.15 K, 5000 kPa",756.01 ± 0.33 kg/m3
same,mass density,"288.15 K, 10000 kPa",760.78 ± 0.36 kg/m3
same,mass density,"288.15 K, 15000 kPa",765.26 ± 0.4 kg/m3
same,mass density,"288.15 K, 20000 kPa",769.53 ± 0.43 kg/m3
same,mass density,"288.15 K, 25000 kPa",773.58 ± 0.46 kg/m3
same,mass density,"288.15 K, 30000 kPa",777.48 ± 0.5 kg/m3
same,mass density,"288.15 K, 35000 kPa",781.19 ± 0.53 kg/m3
same,mass density,"288.15 K, 40000 kPa",784.79 ± 0.57 kg/m3
same,mass density,"288.15 K, 45000 kPa",788.24 ± 0.61 kg/m3
same,mass density,"288.15 K, 50000 kPa",791.57 ± 0.64 kg/m3
same,mass density,"288.15 K, 55000 kPa",794.8 ± 0.67 kg/m3
same,mass density,"288.15 K, 60000 kPa",797.94 ± 0.7 kg/m3
same,mass density,"288.15 K, 65000 kPa",800.98 ± 0.74 kg/m3
same,mass density,"293.15 K, 100 kPa",745.85 ± 0.3 kg/m3
same,mass density,"293.15 K, 5000 kPa",751.18 ± 0.33 kg/m3
same,mass density,"293.15 K, 10000 kPa",756.08 ± 0.36 kg/m3
same,mass density,"293.15 K, 15000 kPa",760.71 ± 0.4 kg/m3
same,mass density,"293.15 K, 20000 kPa",765.09 ± 0.43 kg/m3
same,mass density,"293.15 K, 25000 kPa",769.27 ± 0.47 kg/m3
same,mass density,"293.15 K, 30000 kPa",773.26 ± 0.5 kg/m3
same,mass density,"293.15 K, 35000 kPa",777.09 ± 0.54 kg/m3
same,mass density,"293.15 K, 40000 kPa",780.75 ± 0.58 kg/m3
same,mass density,"293.15 K, 45000 kPa",784.3 ± 0.61 kg/m3
same,mass density,"293.15 K, 50000 kPa",787.7 ± 0.65 kg/m3
same,mass density,"293.15 K, 55000 kPa",791 ± 0.68 kg/m3
same,mass density,"293.15 K, 60000 kPa",794.21 ± 0.71 kg/m3
same,mass density,"293.15 K, 65000 kPa",797.33 ± 0.75 kg/m3
same,mass density,"298.15 K, 100 kPa",740.78 ± 0.3 kg/m3
same,mass density,"298.15 K, 5000 kPa",746.29 ± 0.33 kg/m3
same,mass density,"298.15 K, 10000 kPa",751.36 ± 0.37 kg/m3
same,mass density,"298.15 K, 15000 kPa",756.15 ± 0.4 kg/m3
same,mass density,"298.15 K, 20000 kPa",760.68 ± 0.44 kg/m3
same,mass density,"298.15 K, 25000 kPa",764.97 ± 0.47 kg/m3
same,mass density,"298.15 K, 30000 kPa",769.08 ± 0.51 kg/m3
same,mass density,"298.15 K, 35000 kPa",772.99 ± 0.55 kg/m3
same,mass density,"298.15 K, 40000 kPa",776.76 ± 0.58 kg/m3
same,mass density,"298.15 K, 45000 kPa",780.38 ± 0.62 kg/m3
same,mass density,"298.15 K, 50000 kPa",783.87 ± 0.65 kg/m3
same,mass density,"298.15 K, 55000 kPa",787.24 ± 0.69 kg/m3
same,mass density,"298.15 K, 60000 kPa",790.51 ± 0.72 kg/m3
same,mass density,"298.15 K, 65000 kPa",793.65 ± 0.76 kg/m3
same,mass density,"303.15 K, 100 kPa",735.68 ± 0.3 kg/m3
same,mass density,"303.15 K, 5000 kPa",741.39 ± 0.33 kg/m3
same,mass density,"303.15 K, 10000 kPa",746.66 ± 0.37 kg/m3
same,mass density,"303.15 K, 15000 kPa",751.6 ± 0.4 kg/m3
same,mass density,"303.15 K, 20000 kPa",756.25 ± 0.44 kg/m3
same,mass density,"303.15 K, 25000 kPa",760.68 ± 0.47 kg/m3
same,mass density,"303.15 K, 30000 kPa",764.89 ± 0.51 kg/m3
same,mass density,"303.15 K, 35000 kPa",768.9 ± 0.55 kg/m3
same,mass density,"303.15 K, 40000 kPa",772.76 ± 0.59 kg/m3
same,mass density,"303.15 K, 45000 kPa",776.46 ± 0.63 kg/m3
same,mass density,"303.15 K, 50000 kPa",780.03 ± 0.66 kg/m3
same,mass density,"303.15 K, 55000 kPa",783.46 ± 0.7 kg/m3
same,mass density,"303.15 K, 60000 kPa",786.77 ± 0.73 kg/m3
same,mass density,"303.15 K, 65000 kPa",790 ± 0.76 kg/m3
same,mass density,"308.15 K, 100 kPa",730.53 ± 0.3 kg/m3
same,mass density,"308.15 K, 5000 kPa",736.43 ± 0.33 kg/m3
same,mass density,"308.15 K, 10000 kPa",741.88 ± 0.37 kg/m3
same,mass density,"308.15 K, 15000 kPa",746.98 ± 0.41 kg/m3
same,mass density,"308.15 K, 20000 kPa",751.8 ± 0.44 kg/m3
same,mass density,"308.15 K, 25000 kPa",756.35 ± 0.48 kg/m3
same,mass density,"308.15 K, 30000 kPa",760.67 ± 0.52 kg/m3
same,mass density,"308.15 K, 35000 kPa",764.79 ± 0.56 kg/m3
same,mass density,"308.15 K, 40000 kPa",768.74 ± 0.6 kg/m3
same,mass density,"308.15 K, 45000 kPa",772.53 ± 0.63 kg/m3
same,mass density,"308.15 K, 50000 kPa",776.18 ± 0.67 kg/m3
same,mass density,"308.15 K, 55000 kPa",779.69 ± 0.71 kg/m3
same,mass density,"308.15 K, 60000 kPa",783.07 ± 0.74 kg/m3
same,mass density,"308.15 K, 65000 kPa",786.36 ± 0.77 kg/m3
same,mass density,"313.15 K, 100 kPa",725.34 ± 0.3 kg/m3
same,mass density,"313.15 K, 5000 kPa",731.47 ± 0.33 kg/m3
same,mass density,"313.15 K, 10000 kPa",737.11 ± 0.37 kg/m3
same,mass density,"313.15 K, 15000 kPa",742.4 ± 0.41 kg/m3
same,mass density,"313.15 K, 20000 kPa",747.36 ± 0.45 kg/m3
same,mass density,"313.15 K, 25000 kPa",752.04 ± 0.48 kg/m3
same,mass density,"313.15 K, 30000 kPa",756.48 ± 0.52 kg/m3
same,mass density,"313.15 K, 35000 kPa",760.7 ± 0.56 kg/m3
same,mass density,"313.15 K, 40000 kPa",764.74 ± 0.6 kg/m3
same,mass density,"313.15 K, 45000 kPa",768.63 ± 0.64 kg/m3
same,mass density,"313.15 K, 50000 kPa",772.34 ± 0.68 kg/m3
same,mass density,"313.15 K, 55000 kPa",775.93 ± 0.71 kg/m3
same,mass density,"313.15 K, 60000 kPa",779.39 ± 0.75 kg/m3
same,mass density,"313.15 K, 65000 kPa",782.73 ± 0.78 kg/m3
same,mass density,"318.15 K, 100 kPa",720.1 ± 0.3 kg/m3
same,mass density,"318.15 K, 5000 kPa",726.46 ± 0.34 kg/m3
same,mass density,"318.15 K, 10000 kPa",732.32 ± 0.37 kg/m3
same,mass density,"318.15 K, 15000 kPa",737.77 ± 0.41 kg/m3
same,mass density,"318.15 K, 20000 kPa",742.89 ± 0.45 kg/m3
same,mass density,"318.15 K, 25000 kPa",747.69 ± 0.48 kg/m3
same,mass density,"318.15 K, 30000 kPa",752.27 ± 0.53 kg/m3
same,mass density,"318.15 K, 35000 kPa",756.62 ± 0.57 kg/m3
same,mass density,"318.15 K, 40000 kPa",760.76 ± 0.61 kg/m3
same,mass density,"318.15 K, 45000 kPa",764.73 ± 0.65 kg/m3
same,mass density,"318.15 K, 50000 kPa",768.51 ± 0.69 kg/m3
same,mass density,"318.15 K, 55000 kPa",772.16 ± 0.72 kg/m3
same,mass density,"318.15 K, 60000 kPa",775.71 ± 0.76 kg/m3
same,mass density,"318.15 K, 65000 kPa",779.13 ± 0.79 kg/m3
same,mass density,"323.15 K, 100 kPa",714.8 ± 0.3 kg/m3
same,mass density,"323.15 K, 5000 kPa",721.41 ± 0.34 kg/m3
same,mass density,"323.15 K, 10000 kPa",727.49 ± 0.38 kg/m3
same,mass density,"323.15 K, 15000 kPa",733.12 ± 0.41 kg/m3
same,mass density,"323.15 K, 20000 kPa",738.42 ± 0.45 kg/m3
same,mass density,"323.15 K, 25000 kPa",743.37 ± 0.49 kg/m3
same,mass density,"323.15 K, 30000 kPa",748.07 ± 0.53 kg/m3
same,mass density,"323.15 K, 35000 kPa",752.53 ± 0.57 kg/m3
same,mass density,"323.15 K, 40000 kPa",756.76 ± 0.62 kg/m3
same,mass density,"323.15 K, 45000 kPa",760.83 ± 0.66 kg/m3
same,mass density,"323.15 K, 50000 kPa",764.7 ± 0.69 kg/m3
same,mass density,"323.15 K, 55000 kPa",768.43 ± 0.73 kg/m3
same,mass density,"323.15 K, 60000 kPa",772.05 ± 0.77 kg/m3
same,mass density,"323.15 K, 65000 kPa",775.54 ± 0.8 kg/m3
same,mass density,"328.15 K, 100 kPa",709.45 ± 0.3 kg/m3
same,mass density,"328.15 K, 5000 kPa",716.32 ± 0.34 kg/m3
same,mass density,"328.15 K, 10000 kPa",722.64 ± 0.38 kg/m3
same,mass density,"328.15 K, 15000 kPa",728.5 ± 0.42 kg/m3
same,mass density,"328.15 K, 20000 kPa",733.93 ± 0.45 kg/m3
same,mass density,"328.15 K, 25000 kPa",739.05 ± 0.49 kg/m3
same,mass density,"328.15 K, 30000 kPa",743.83 ± 0.54 kg/m3
same,mass density,"328.15 K, 35000 kPa",748.41 ± 0.58 kg/m3
same,mass density,"328.15 K, 40000 kPa",752.76 ± 0.62 kg/m3
same,mass density,"328.15 K, 45000 kPa",756.92 ± 0.66 kg/m3
same,mass density,"328.15 K, 50000 kPa",760.91 ± 0.7 kg/m3
same,mass density,"328.15 K, 55000 kPa",764.72 ± 0.74 kg/m3
same,mass density,"328.15 K, 60000 kPa",768.39 ± 0.78 kg/m3
same,mass density,"328.15 K, 65000 kPa",771.91 ± 0.81 kg/m3
same,mass density,"333.15 K, 100 kPa",704.04 ± 0.3 kg/m3
same,mass density,"333.15 K, 5000 kPa",711.19 ± 0.34 kg/m3
same,mass density,"333.15 K, 10000 kPa",717.74 ± 0.38 kg/m3
same,mass density,"333.15 K, 15000 kPa",723.77 ± 0.42 kg/m3
same,mass density,"333.15 K, 20000 kPa",729.38 ± 0.46 kg/m3
same,mass density,"333.15 K, 25000 kPa",734.64 ± 0.5 kg/m3
same,mass density,"333.15 K, 30000 kPa",739.61 ± 0.54 kg/m3
same,mass density,"333.15 K, 35000 kPa",744.31 ± 0.59 kg/m3
same,mass density,"333.15 K, 40000 kPa",748.78 ± 0.63 kg/m3
same,mass density,"333.15 K, 45000 kPa",753.01 ± 0.67 kg/m3
same,mass density,"333.15 K, 50000 kPa",757.06 ± 0.71 kg/m3
same,mass density,"333.15 K, 55000 kPa",760.97 ± 0.75 kg/m3
same,mass density,"333.15 K, 60000 kPa",764.71 ± 0.78 kg/m3
same,mass density,"333.15 K, 65000 kPa",768.34 ± 0.82 kg/m3
